Literature values, collected in patent US20220096371A1, “BIODEGRADABLE MICRONEEDLE SYSTEM WITH SUSTAINED RELEASE” (University of Connecticut, priority 2020, published 2022).

[1] = 81 mg ASA oral pill, by HPLC, used as target for MN system

CC(=O)Oc1ccccc1C(=O)O [ASA, acetylsalicylic acid]
ACU (area under the curve) [1]: ~865 ng/ml.hr
average daily plasma concentration [1]: ~100 ng/mL
bioavailability (oral use): ~20%
